Experiments:
[1] = test system: INS-1 832/13 cells; experiment: Insulin secretion by INS-1 832/13 pancreatic beta cells (static secretion, insulin by RIA, normalized to cellular protein); type: cell-based, rodent; details: for fold increase in insulin secretion: versus untreated cells; for increase in insulin secretion: increase over untreated cells
Experimental: Insulin Secretion Studies. INS-1 832/13 cells (kindly provided by Dr Christopher Newgard, Duke University, NC) (18) were routinely cultured in 5% CO2/air at 37° C. in RPMI-1640 medium containing 11.1 mM glucose and supplemented with 10% FBS (Fetal Bovine Serum), 10 mM HEPES, 100 U/ml penicillin, 100 μg/ml streptomycin, 4 mM Glutamine, 1 mM sodium pyruvate, and 50 μM 2-mercaptoethanol. Cells were passed weekly after trypsin-EDTA detachment. For static secretion studies, cells were plated on 24 well plates at a density of 0.64×10^6 cells per well and grown for 24 h. The cells were then cultured for an additional 24 h in RPMI-1640 containing 4 mM glucose and the supplements described above. Cells were then incubated twice for 30 min in Krebs Ringer Bicarbonate buffer (KRBB) containing 4 mM glucose and 0.1% BSA. Cells were rapidly washed with KRBB and incubated for 60 min KRBB containing 4 or 10 mM glucose with or without the indicated anthocyanins or anthocyanidins. The medium was then removed for determining insulin release. The cells were then washed twice with PBS and dissolved in 1 M NaOH. Cellular protein concentration was then determined by Lowry assay. Anthocyanins and anthocyanidins were dissolved in DMSO to obtain desired concentrations. Final concentration of DMSO was 0.1%. The insulin secreted into the medium by the cells was determined by radioimmuno assay and normalized to total cellular protein.
Radio Immuno Assay (RIA). The Kit for RIA was purchased from LINCO Research Inc. (St Charles, Mo.), and the assay was conducted according to the manufacturer's directions. Briefly, 0.1-10 ng of insulin standards (100 μl) were added to 12×75 mm test tubes. Similarly, samples (25 μl) from the insulin secretion studies were also added to the test tubes. To this, an aliquot (75 μl) of assay buffer was added. The ^125I labeled insulin (100 μl) was then added to each test tube. […] The tubes were then centrifuged and the radioactivity was measured using a gamma counter.
Lowry protein Assay. The amount of protein in the assay wells was determined by Lowry method (Francis, J. A., et al., Helv. Chim. Acta 87 317-326 (2004)). The Lowry assay solution was prepared by combining the Lowry solution, CuSO4.5H2O (1%), and sodium tartarate (1%). Briefly, the protein sample (100 μl) and Lowry mixture (1 mL) were mixed in a test tube (12×75). The Folin-Ciolatues reagent (100 μl) was added to these tubes, mixed, and incubated for 30 min at room temperature. The optical density of resulting solutions was read at 700 nm using a UV spectrophotometer.

[2] = mice; cited from earlier work
[3] = 4 mM glucose, 50 μg/mL compound
[4] = 10 mM glucose, 50 μg/mL compound

Row | SMILES | insulin secreted ([1]; 4 mM glucose, 50 μg/mL compound, total secreted by treated cells) | fold increase in insulin secretion [1, 3] | fold increase in insulin secretion [1, 4] | effect on insulin secretion, result in words ([1]; 4 and 10 mM glucose) | effect on insulin secretion, result in words ([1]; 4 and 10 mM glucose, listed as delphinidin-3-glucoside) | insulin secreted (dose dependent assay) ([1]; 4 mM glucose, 5 μg/mL compound, untreated cells 33) | effect on insulin secretion, result in words [1, 3] | increase in insulin secretion ([1]; 4 mM glucose, 50 μg/mL compound, 60 min) | insulin secretion (dose dependent assay), result in words ([1]; 4 mM glucose, 10, 50, 100 and 250 μg/mL compound) | effect on insulin secretion, result in words [1, 4] | high fat diet induced obesity [2] | increase in insulin secretion [1, 4]
1 | OC[C@H]1O[C@@H](Oc2cc3c(O)cc(O)cc3[o+]c2-c2cc(O)c(O)c(O)c2)[C@H](O)[C@@H](O)[C@@H]1O [Compound 2, delphinidin-3-glucoside] | 49 ng/mg of protein | 1.8 fold | 1.4 fold | most effective insulin secretagogues | significantly induced the insulin secretion |  |  |  |  |  |  | 
2 | OC[C@H]1O[C@@H](Oc2cc3c(O)cc(O)cc3[o+]c2-c2ccc(O)c(O)c2)[C@H](O)[C@@H](O)[C@@H]1O [Compound 1, cyanidin-3-glucoside] |  | 1.3 fold |  | most effective insulin secretagogues |  | 46 ng of insulin per mg protein | less active than delphinidin-3-glucoside | 9 ng/mg of protein | no significant difference | more active | reduced | 
3 | OCC1OC(Oc2cc3c(O)cc(O)cc3[o+]c2-c2ccc(O)cc2)C(O)C(O)C1O (stereo not shown) [Compound 4, pelargonidin-3-galactoside] |  |  |  | did not induce insulin secretion |  |  | did not increase the insulin secretion |  |  |  |  | 
4 | OC[C@H]1O[C@@H](Oc2cc3c(O)cc(O)cc3[o+]c2-c2ccc(O)c(O)c2)[C@H](O)[C@@H](O)[C@H]1O [Compound 3, cyanidin-3-galactoside] |  |  | 1.2 fold | significant increase in insulin secretion |  |  | did not increase the insulin secretion |  |  |  |  | 17 ng/mg of protein

Reference: patent publication US7737121B2, “Insulin secretion by anthocyanins and anthocyanidins” (Board of Trustees of Michigan State University, priority 2004, dated 2010)
